Laboratory results: the supplement of paper PMC10307832

Tests used:
Assay in all cases: relative viability (nuclei count vs DMSO), 5 days (fraction); higher = more cells survive
BEN = test system: BEN
Method in brief: (§1)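 For relative viability, nuclei counts in treated wells were divided by those in vehicle wells. Lung cancer cell lines had been pin-tool dosed in 1536-well plates the day after seeding and cultured for 5 days, then fixed and stained in one step (final 0.05% Triton X-100, 1% formaldehyde, 1 ug/ml Hoechst) and imaged at 4×. Doses were one drug alone or a fixed anchor-drug dose plus five library-drug doses (not always all listed) in √10 steps, and values are duplicate-plate medians.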

ChaGo-K-1 = test system: ChaGo-K-1
Method in brief: as §1

HCC-78 = test system: HCC-78
Method in brief: as §1

LC-2-ad = test system: LC-2-ad
Method in brief: as §1

LCLC-97TM1 = test system: LCLC-97TM1
Method in brief: as §1

LK-2 = test system: LK-2
Method in brief: as §1

LU99A = test system: LU99A
Method in brief: as §1

LXF-289 = test system: LXF-289
Method in brief: as §1

NCI-H1355 = test system: NCI-H1355
Method in brief: as §1

NCI-H1651 = test system: NCI-H1651
Method in brief: as §1

NCI-H1666 = test system: NCI-H1666
Method in brief: as §1

NCI-H1944 = test system: NCI-H1944
Method in brief: as §1

NCI-H1975 = test system: NCI-H1975
Method in brief: as §1

NCI-H2087 = test system: NCI-H2087
Method in brief: as §1

NCI-H2342 = test system: NCI-H2342
Method in brief: as §1

NCI-H358 = test system: NCI-H358
Method in brief: as §1

NCI-H596 = test system: NCI-H596
Method in brief: as §1

NCI-H650 = test system: NCI-H650
Method in brief: as §1

NCI-H661 = test system: NCI-H661
Method in brief: as §1

NCI-H838 = test system: NCI-H838
Method in brief: as §1

PC-3 [JPC-3] = test system: PC-3 [JPC-3]
Method in brief: as §1

SK-MES-1 = test system: SK-MES-1
Method in brief: as §1

Compound `COc1cc2nccc(Oc3ccc(NC(=O)Nc4cc(C)on4)c(Cl)c3)c2cc1OC` [Tivozanib] + O=C(c1cc(Cc2n[nH]c(=O)c3ccccc23)ccc1F)N1CCN(C(=O)C2CC2)CC1 [Olaparib] (partner 8 µM) has a relative viability (BEN; first compound 0.005 µM) of 0.979, a relative viability (BEN; first compound 0.01581 µM) of 1.09 and a relative viability (BEN; first compound 0.05 µM) of 1.07. For the same compound, the relative viability (BEN; first compound 0.1581 µM) was 1.03, the relative viability (BEN; first compound 0.5 µM) was 0.888 and the relative viability (ChaGo-K-1; first compound 0.005 µM) was 0.386. For the same compound, the relative viability (ChaGo-K-1; first compound 0.01581 µM) was 0.381, the relative viability (ChaGo-K-1; first compound 0.05 µM) was 0.409 and the relative viability (ChaGo-K-1; first compound 0.1581 µM) was 0.412. For the same compound, the relative viability (ChaGo-K-1; first compound 0.5 µM) was 0.37, the relative viability (HCC-78; first compound 0.005 µM) was 0.796 and the relative viability (HCC-78; first compound 0.01581 µM) was 0.746. For the same compound, the relative viability (HCC-78; first compound 0.05 µM) was 0.732, the relative viability (HCC-78; first compound 0.1581 µM) was 0.872 and the relative viability (HCC-78; first compound 0.5 µM) was 0.581. For the same compound, the relative viability (LC-2-ad; first compound 0.005 µM) was 0.768, the relative viability (LC-2-ad; first compound 0.01581 µM) was 0.793 and the relative viability (LC-2-ad; first compound 0.05 µM) was 0.787. For the same compound, the relative viability (LC-2-ad; first compound 0.1581 µM) was 0.794, the relative viability (LC-2-ad; first compound 0.5 µM) was 0.729 and the relative viability (LCLC-97TM1; first compound 0.005 µM) was 0.35. For the same compound, the relative viability (LCLC-97TM1; first compound 0.01581 µM) was 0.34, the relative viability (LCLC-97TM1; first compound 0.05 µM) was 0.321 and the relative viability (LCLC-97TM1; first compound 0.1581 µM) was 0.427. It also gave a relative viability (LCLC-97TM1; first compound 0.5 µM) of 0.436, a relative viability (LK-2; first compound 0.005 µM) of 0.67 and a relative viability (LK-2; first compound 0.01581 µM) of 0.759. For the same compound, the relative viability (LK-2; first compound 0.05 µM) was 0.691, the relative viability (LK-2; first compound 0.1581 µM) was 0.573 and the relative viability (LK-2; first compound 0.5 µM) was 0.613. It also gave a relative viability (LU99A; first compound 0.005 µM) of 0.275, a relative viability (LU99A; first compound 0.01581 µM) of 0.247 and a relative viability (LU99A; first compound 0.05 µM) of 0.271. For the same compound, the relative viability (LU99A; first compound 0.1581 µM) was 0.231, the relative viability (LU99A; first compound 0.5 µM) was 0.27 and the relative viability (LXF-289; first compound 0.005 µM) was 0.984. It also gave a relative viability (LXF-289; first compound 0.01581 µM) of 0.994, a relative viability (LXF-289; first compound 0.05 µM) of 1.09 and a relative viability (LXF-289; first compound 0.1581 µM) of 1.13. The relative viability (LXF-289; first compound 0.5 µM) was 0.99, the relative viability (NCI-H1355; first compound 0.005 µM) was 0.732 and the relative viability (NCI-H1355; first compound 0.01581 µM) was 0.755. For the same compound, the relative viability (NCI-H1355; first compound 0.05 µM) was 0.765, the relative viability (NCI-H1355; first compound 0.1581 µM) was 0.672 and the relative viability (NCI-H1355; first compound 0.5 µM) was 0.753. The relative viability (NCI-H1651; first compound 0.005 µM) was 0.187, the relative viability (NCI-H1651; first compound 0.01581 µM) was 0.188 and the relative viability (NCI-H1651; first compound 0.05 µM) was 0.198. It also gave a relative viability (NCI-H1651; first compound 0.1581 µM) of 0.203, a relative viability (NCI-H1651; first compound 0.5 µM) of 0.158 and a relative viability (NCI-H1666; first compound 0.005 µM) of 0.777. It also gave a relative viability (NCI-H1666; first compound 0.01581 µM) of 0.713, a relative viability (NCI-H1666; first compound 0.05 µM) of 0.739 and a relative viability (NCI-H1666; first compound 0.1581 µM) of 0.802. The relative viability (NCI-H1666; first compound 0.5 µM) was 0.719, the relative viability (NCI-H1944; first compound 0.005 µM) was 0.331 and the relative viability (NCI-H1944; first compound 0.01581 µM) was 0.395. For the same compound, the relative viability (NCI-H1944; first compound 0.05 µM) was 0.416, the relative viability (NCI-H1944; first compound 0.1581 µM) was 0.406 and the relative viability (NCI-H1944; first compound 0.5 µM) was 0.376. The relative viability (NCI-H1975; first compound 0.005 µM) was 0.753, the relative viability (NCI-H1975; first compound 0.01581 µM) was 0.815 and the relative viability (NCI-H1975; first compound 0.05 µM) was 0.756. It also gave a relative viability (NCI-H1975; first compound 0.1581 µM) of 0.76, a relative viability (NCI-H1975; first compound 0.5 µM) of 0.662 and a relative viability (NCI-H2087; first compound 0.005 µM) of 0.542. For the same compound, the relative viability (NCI-H2087; first compound 0.01581 µM) was 0.51, the relative viability (NCI-H2087; first compound 0.05 µM) was 0.652 and the relative viability (NCI-H2087; first compound 0.1581 µM) was 0.683. It also gave a relative viability (NCI-H2087; first compound 0.5 µM) of 0.713, a relative viability (NCI-H2342; first compound 0.005 µM) of 0.433 and a relative viability (NCI-H2342; first compound 0.01581 µM) of 0.404. For the same compound, the relative viability (NCI-H2342; first compound 0.05 µM) was 0.465, the relative viability (NCI-H2342; first compound 0.5 µM) was 0.42 and the relative viability (NCI-H358; first compound 0.005 µM) was 0.522. The relative viability (NCI-H358; first compound 0.01581 µM) was 0.612, the relative viability (NCI-H358; first compound 0.05 µM) was 0.583 and the relative viability (NCI-H358; first compound 0.1581 µM) was 0.61. For the same compound, the relative viability (NCI-H358; first compound 0.5 µM) was 0.542, the relative viability (NCI-H596; first compound 0.005 µM) was 0.621 and the relative viability (NCI-H596; first compound 0.01581 µM) was 0.696. It also gave a relative viability (NCI-H596; first compound 0.05 µM) of 0.773, a relative viability (NCI-H596; first compound 0.5 µM) of 0.706 and a relative viability (NCI-H650; first compound 0.005 µM) of 0.321. For the same compound, the relative viability (NCI-H650; first compound 0.01581 µM) was 0.359, the relative viability (NCI-H650; first compound 0.05 µM) was 0.42 and the relative viability (NCI-H650; first compound 0.1581 µM) was 0.401. It also gave a relative viability (NCI-H650; first compound 0.5 µM) of 0.323, a relative viability (NCI-H661; first compound 0.005 µM) of 0.703 and a relative viability (NCI-H661; first compound 0.01581 µM) of 0.708. For the same compound, the relative viability (NCI-H661; first compound 0.05 µM) was 0.741, the relative viability (NCI-H661; first compound 0.1581 µM) was 0.77 and the relative viability (NCI-H661; first compound 0.5 µM) was 0.699. For the same compound, the relative viability (NCI-H838; first compound 0.005 µM) was 0.785, the relative viability (NCI-H838; first compound 0.01581 µM) was 0.785 and the relative viability (NCI-H838; first compound 0.05 µM) was 0.825. For the same compound, the relative viability (NCI-H838; first compound 0.1581 µM) was 0.828, the relative viability (NCI-H838; first compound 0.5 µM) was 0.773 and the relative viability (PC-3 [JPC-3]; first compound 0.01581 µM) was 1.22. It also gave a relative viability (PC-3 [JPC-3]; first compound 0.05 µM) of 1.11, a relative viability (PC-3 [JPC-3]; first compound 0.1581 µM) of 1.15 and a relative viability (PC-3 [JPC-3]; first compound 0.5 µM) of 1.09. For the same compound, the relative viability (SK-MES-1; first compound 0.005 µM) was 0.661, the relative viability (SK-MES-1; first compound 0.01581 µM) was 0.623 and the relative viability (SK-MES-1; first compound 0.05 µM) was 0.772. It also gave a relative viability (SK-MES-1; first compound 0.1581 µM) of 0.62 and a relative viability (SK-MES-1; first compound 0.5 µM) of 0.583.
